pIC50, pKd: −log10 of the molar value.

Test [1] has as its target GDP-bound KRAS wild-type protein (Homo sapiens, UniProt P01116). Description: Binding to KRAS by surface plasmon resonance (SPR), dissociation constant KD. The note with it: Single Cycle Kinetics, 1:1 binding model. An outline of the steps: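 Recombinant RAS proteins bearing a biotinylated Avi tag and loaded with GDP served as the captured ligand, recaptured fresh every cycle. Binding responses were referenced to an uncoated surface and a buffer-only blank cycle. Dissociation constants were obtained by 1:1 model fitting at 30°C.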

The target of test [2] is GDP-bound NRAS wild-type protein (Homo sapiens, UniProt P01111). Description: Binding to NRAS by surface plasmon resonance (SPR), KD and KD ratio to KRAS. The note with it: ratio of KD with respect to GDP-bound NRAS wild-type protein to KD with respect to KRAS. The method, boiled down: (§1)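 Captured GDP-RAS (~100–300 RU) was exposed to increasing compound concentrations, 75 s per step, in running buffer with 10 µM GDP, 10 mM MgCl2 and 4% DMSO at pH 7.4.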
GDP-bound NRAS wild-type protein, sequence (P01111 whole entry): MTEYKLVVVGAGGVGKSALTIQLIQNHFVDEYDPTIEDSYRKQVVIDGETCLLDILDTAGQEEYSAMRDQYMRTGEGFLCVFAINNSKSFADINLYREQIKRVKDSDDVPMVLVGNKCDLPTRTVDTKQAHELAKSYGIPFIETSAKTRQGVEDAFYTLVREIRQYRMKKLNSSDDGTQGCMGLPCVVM

For the next test, the target named is HRAS wild-type protein (Homo sapiens, UniProt P01112). Description: Binding to HRAS by surface plasmon resonance (SPR), KD and KD ratio to KRAS. To be noted: ratio of KD with respect to HRAS wild-type protein to KD with respect to KRAS. An outline of the steps:
as §1
Background: In SPR one partner is held on a chip, and binding of the other changes the refractive index at the surface.

The subject of test [3] is human lung cancer strain NCI-H441. Description: NCI-H441 cell proliferation inhibitory activity (CellTiter-Glo, 4 days). The test is classed as cell-based. To be noted: 50% proliferation inhibitory concentration, four days, read-out: NCl-H441 IC50. An outline of the steps: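 Step one: dispense the test compound in serial DMSO dilutions. Step three: add the reagent and measure […].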
(ATP-based viability assays read luminescence as a measure of living cells.)

HRAS wild-type protein, sequence (P01112 whole entry): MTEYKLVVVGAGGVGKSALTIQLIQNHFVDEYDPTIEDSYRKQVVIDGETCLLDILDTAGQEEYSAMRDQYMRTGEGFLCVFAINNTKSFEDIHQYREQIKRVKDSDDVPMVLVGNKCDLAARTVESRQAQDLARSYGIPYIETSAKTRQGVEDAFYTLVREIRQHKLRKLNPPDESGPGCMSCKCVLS
GDP-bound KRAS wild-type protein, sequence (P01116 1-188 isoform P01116-2): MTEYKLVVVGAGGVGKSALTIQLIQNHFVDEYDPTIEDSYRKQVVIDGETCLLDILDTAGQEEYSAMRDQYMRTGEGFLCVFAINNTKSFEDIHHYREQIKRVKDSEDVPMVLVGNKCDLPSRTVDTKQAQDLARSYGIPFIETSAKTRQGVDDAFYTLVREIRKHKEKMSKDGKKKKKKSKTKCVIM

For `CCO[C@@H]1C[C@H]2C(=O)NC3(CCC3)C(=O)N(C)[C@@H](C3CCCC3)C(=O)N(C)[C@H](C)CC(=O)N(C)[C@@H](CC3CC3)C(=O)N[C@@H]([C@@H](C)CC)C(=O)N(C)CC(=O)N(C)[C@H]3C/C=C\CCN(C3=O)[C@@H](Cc3ccc(C)cc3)C(=O)N(C)CC(=O)N[C@@H](CCc3cc(F)c(C(F)(F)F)c(F)c3)C(=O)N2C1` [PP1410], in test [1], the pKd – broadly, the Kd on a negative log10 scale, so that one unit is a factor of ten – was 9.49. In addition, in test [2], the “NRAS /KRAS” value is “B (a compound having 3 or more and less than 10 is denoted as B)”. Also, at HRAS wild-type protein, the “HRAS /KRAS” value is “B (a compound having 3 or more and less than 10 is denoted as B)”. Moreover, the pIC50 (as a rule, −log10 of the IC50, conventionally taken in molar units) in test [3] was 7.29.
`CCO[C@@H]1C[C@H]2C(=O)NC3(CCC3)C(=O)N(C)[C@@H](C3CCCC3)C(=O)N(C)[C@H](C)CC(=O)N(C)[C@@H](CC3CCCC3)C(=O)N[C@@H]([C@@H](C)CC)C(=O)N(C)CC(=O)N(C)[C@H]3C/C=C\CCN(C3=O)[C@@H](Cc3ccc(C)cc3)C(=O)N(C)CC(=O)N[C@@H](CCc3cc(F)c(C(F)(F)F)c(F)c3)C(=O)N2C1` [PP1413] showed a pKd in test [1] of 9.38. Further, the “NRAS /KRAS” value in test [2] is “B (a compound having 3 or more and less than 10 is denoted as B)”. At HRAS wild-type protein, the “HRAS /KRAS” value is “B (a compound having 3 or more and less than 10 is denoted as B)”. Also, in test [3], the pIC50 was 7.20.
`CCO[C@@H]1C[C@H]2C(=O)NC3(CCC3)C(=O)N(C)[C@@H](C3CCCC3)C(=O)N(C)[C@H](C(=O)N(C)C)CC(=O)N(C)[C@@H](CC(C)C)C(=O)N[C@@H]([C@@H](C)CC)C(=O)N(C)CC(=O)N(C)[C@H]3C/C=C\CCN(C3=O)[C@@H](Cc3ccc(C)cc3)C(=O)N(C)CC(=O)N[C@@H](CCc3cc(F)c(C(F)(F)F)c(F)c3)C(=O)N2C1` [PP1414]: in test [1], the pKd was 10.13. Besides, the “NRAS /KRAS” value in test [2] is “A (a compound having 10 or more and less than 20 is denoted as A)”. Moreover, at HRAS wild-type protein, the “HRAS /KRAS” value is “B (a compound having 3 or more and less than 10 is denoted as B)”. For the same compound, the pIC50 in test [3] was 8.36.
`CCO[C@@H]1C[C@H]2C(=O)NC3(CCC3)C(=O)N(C)[C@@H](C3CCCC3)C(=O)N(C)[C@H](C)CC(=O)N(C)[C@@H](CC(C)C)C(=O)N[C@@H]([C@@H](C)CC)C(=O)N(C)CC(=O)N(C)[C@H]3C/C=C\CCN(C3=O)[C@@H](Cc3ccc(C)cc3)C(=O)N(C)CC(=O)N[C@@H](CCc3cc(F)c(C(F)(F)F)c(F)c3)C(=O)N2C1` [PP1417] gave a pKd in test [1] of 9.59. Further, the “NRAS /KRAS” value in test [2] is “B (a compound having 3 or more and less than 10 is denoted as B)”. Moreover, the “HRAS /KRAS” value at HRAS wild-type protein is “B (a compound having 3 or more and less than 10 is denoted as B)”. The pIC50 in test [3] is 7.74.
Regarding `CCO[C@@H]1C[C@H]2C(=O)NC3(CCC3)C(=O)N(C)[C@@H](C3CCCC3)C(=O)N(C)[C@H](C(=O)N3CCOCC3)CC(=O)N(C)[C@@H](CC3CCCCC3)C(=O)N[C@@H]([C@@H](C)CC)C(=O)N(C)CC(=O)N(C)[C@H]3C/C=C\CCN(C3=O)[C@@H](Cc3ccc(C)cc3)C(=O)N(C)CC(=O)N[C@@H](CCc3cc(F)c(C(F)(F)F)c(F)c3)C(=O)N2C1` [PP1420], the pKd in test [1] was 9.46. Further, the “NRAS /KRAS” value in test [2] was “A (a compound having 10 or more and less than 20 is denoted as A)”. In addition, at HRAS wild-type protein, the “HRAS /KRAS” value was “A (a compound having 10 or more and less than 20 is denoted as A)”. Besides, the pIC50 in test [3] was 7.50.
In test [1], `CCO[C@@H]1C[C@H]2C(=O)NC3(CCC3)C(=O)N(C)[C@@H](C3CCCC3)C(=O)N(C)[C@H](C(=O)N3CCOCC3)CC(=O)N(C)[C@@H](CC3CCC3)C(=O)N[C@@H]([C@@H](C)CC)C(=O)N(C)CC(=O)N(C)[C@H]3C/C=C\CCN(C3=O)[C@@H](Cc3ccc(C(F)(F)F)cc3)C(=O)N(C)CC(=O)N[C@@H](CCc3cc(F)c(C(F)(F)F)c(F)c3)C(=O)N2C1` [PP1422] showed a pKd of 9.66. In addition, in test [2], the “NRAS /KRAS” value was “AA (a compound having 20 or more is denoted as AA)”. Besides, the “HRAS /KRAS” value on HRAS wild-type protein is “A (a compound having 10 or more and less than 20 is denoted as A)”. Moreover, in test [3], the pIC50 is 7.85.
In test [1], `CCO[C@@H]1C[C@H]2C(=O)NC3(CCC3)C(=O)N(C)[C@@H](C3CCCC3)C(=O)N(C)[C@H](C(=O)N3CCCC3)CC(=O)N(C)[C@@H](CC3CCC3)C(=O)N[C@@H]([C@@H](C)CC)C(=O)N(C)CC(=O)N(C)[C@H]3C/C=C\CCN(C3=O)[C@@H](Cc3ccc(C)cc3)C(=O)N(C)CC(=O)N[C@@H](CCc3cc(F)c(C(F)(F)F)c(F)c3)C(=O)N2C1` [PP1425] showed a pKd of 9.62. In addition, the “NRAS /KRAS” value in test [2] was “A (a compound having 10 or more and less than 20 is denoted as A)”. Further, at HRAS wild-type protein, the “HRAS /KRAS” value is “B (a compound having 3 or more and less than 10 is denoted as B)”. Moreover, in test [3], the pIC50 is 7.69.
In test [1], `CCO[C@@H]1C[C@H]2C(=O)NC3(CCC3)C(=O)N(C)[C@@H](C(CC)CC)C(=O)N(C)[C@H](C(=O)N(C)C)CC(=O)N(C)[C@@H](CC3CC3)C(=O)N[C@@H]([C@@H](C)CC)C(=O)N(C)CC(=O)N(C)[C@H]3C/C=C\CCN(C3=O)[C@@H](CC3CCCCC3)C(=O)N(C)CC(=O)N[C@@H](CCc3cc(F)c(C(F)(F)F)c(F)c3)C(=O)N2C1` [PP1428] gave a pKd of 9.06. Further, in test [2], the “NRAS /KRAS” value is reported as “AA (a compound having 20 or more is denoted as AA)”. In addition, the “HRAS /KRAS” value on HRAS wild-type protein is “A (a compound having 10 or more and less than 20 is denoted as A)”. In test [3], the pIC50 is 7.41.
In turn, `CCO[C@@H]1C[C@H]2C(=O)NC3(CCC3)C(=O)N(C)[C@@H](C(CC)CC)C(=O)N(C)[C@H](C(=O)N(C)C)CC(=O)N(C)[C@@H](CC3CCCC3)C(=O)N[C@@H]([C@@H](C)CC)C(=O)N(C)CC(=O)N(C)[C@H]3C/C=C\CCN(C3=O)[C@@H](CC3CCCCC3)C(=O)N(C)CC(=O)N[C@@H](CCc3cc(F)c(C(F)(F)F)c(F)c3)C(=O)N2C1` [PP1430] showed a pKd in test [1] of 9.07. The “NRAS /KRAS” value in test [2] was “A (a compound having 10 or more and less than 20 is denoted as A)”. For the same compound, the “HRAS /KRAS” value at HRAS wild-type protein was “A (a compound having 10 or more and less than 20 is denoted as A)”. Moreover, in test [3], the pIC50 is 7.15.
The compound `CCO[C@@H]1C[C@H]2C(=O)NC3(CCC3)C(=O)N(C)[C@@H](C(CC)CC)C(=O)N(C)[C@H](C(=O)N(C)C)CC(=O)N(C)[C@@H](CC3CCCC3)C(=O)N[C@@H]([C@@H](C)CC)C(=O)N(C)CC(=O)N(C)[C@H]3C/C=C\CCN(C3=O)[C@@H](CC3CCC(F)(F)CC3)C(=O)N(C)CC(=O)N[C@@H](CCc3cc(F)c(C(F)(F)F)c(F)c3)C(=O)N2C1` [PP1431] gave a pKd in test [1] of 9.24. In addition, the “NRAS /KRAS” value in test [2] is given as “AA (a compound having 20 or more is denoted as AA)”. In addition, on HRAS wild-type protein, the “HRAS /KRAS” value is “A (a compound having 10 or more and less than 20 is denoted as A)”. Also, in test [3], the pIC50 was 7.39.
With `CCO[C@@H]1C[C@H]2C(=O)NC3(CCC3)C(=O)N(C)[C@@H](C(CC)CC)C(=O)N(C)[C@H](C(=O)N3CCCC3)CC(=O)N(C)[C@@H](C)C(=O)N[C@@H]([C@@H](C)CC)C(=O)N(C)CC(=O)N(C)[C@H]3C/C=C\CCN(C3=O)[C@@H](CC3CCCCC3)C(=O)N(C)CC(=O)N[C@@H](CCc3cc(F)c(C(F)(F)F)c(F)c3)C(=O)N2C1` [PP1434], the pKd in test [1] was 9.16. Besides, the “NRAS /KRAS” value in test [2] was “A (a compound having 10 or more and less than 20 is denoted as A)”. For the same compound, the “HRAS /KRAS” value on HRAS wild-type protein is “A (a compound having 10 or more and less than 20 is denoted as A)”. Moreover, in test [3], the pIC50 was 6.95.

(Values after patent EP4603105A1, “PHARMACEUTICAL COMPOSITION CONTAINING CYCLIC COMPOUND HAVING SELECTIVE KRAS INHIBITORY EFFECT AGAINST HRAS AND NRAS” (CHUGAI SEIYAKU KABUSHIKI KAISHA, priority 2022, dated 2024).)
